From the NIST ThermoML archive (doi:10.1021/je700329a)
Where “and” joins values, the source holds several entries; their conditions need not be identical. Identical values can stand only once.

Key:
[1] = 101.33 kPa, Liquid; for viscosity: Stabinger Viscometer; for mass density: Vibrating tube method; for speed of sound: DSA 5000; for electrical conductivity: Alternating current cell with electrodes
[2] = wn = mass fraction of the nth substance listed; conditions: 101 kPa, Liquid; for electrical conductivity: Alternating current cell with electrodes; for kinematic viscosity: Capillary tube (Ostwald / Ubbelohde) method; for speed of sound: Pulse-echo method; for mass density: Vibrating tube method

CCCCCC[n+]1ccn(C)c1.O=S(=O)([N-]S(=O)(=O)C(F)(F)F)C(F)(F)F
[1]
Conditions | electrical conductivity [S/m] | mass density | speed of sound | viscosity
258.15 K | – | 1407.6 kg/m3 | – | 941.8 mPa·s
263.15 K | – | 1403.1 kg/m3 | – | 612.7 mPa·s
268.15 K | – | 1398.5 kg/m3 | – | 417.4 mPa·s
273.15 K | – | 1394 kg/m3 | – | 291.2 mPa·s
278.15 K | – | 1389.5 kg/m3 | – | 207.6 mPa·s
283.15 K | – | 1385 kg/m3 and 1385.9 kg/m3 and 1386 kg/m3 | 1262 m/s and 1262.4 m/s | 153.3 mPa·s
288.15 K | 0.135 | 1380.5 kg/m3 | – | 115.8 mPa·s
293.15 K | 0.173 | 1376.7 kg/m3 [middle of 4 runs] | 1238.4 m/s and 1238.5 m/s | 89.54 mPa·s and 89.26 mPa·s
298.15 K | 0.218 | 1372.1 kg/m3 [middle of 4 runs] | 1226.8 m/s and 1226.9 m/s | 70.09 mPa·s and 70.29 mPa·s
303.15 K | – | 1367.3 kg/m3 and 1367.5 kg/m3 and 1367.6 kg/m3 | 1215.5 m/s and 1215.6 m/s | 56.11 mPa·s
308.15 K | 0.328 | – | – | –
313.15 K | – | 1358.3 kg/m3 and 1358.4 kg/m3 | 1193.3 m/s and 1193.4 m/s | 37.41 mPa·s
323.15 K | 0.548 | 1349.3 kg/m3 and 1349.4 kg/m3 | 1171.5 m/s and 1171.6 m/s | 26.25 mPa·s
333.15 K | – | 1340.3 kg/m3 and 1340.4 kg/m3 | 1149.8 m/s and 1150.4 m/s | 19.22 mPa·s
343.15 K | – | 1331.3 kg/m3 and 1331.4 kg/m3 | 1128.4 m/s and 1129.6 m/s | 14.58 mPa·s
353.15 K | – | 1322.5 kg/m3 | – | 11.38 mPa·s
363.15 K | – | 1313.6 kg/m3 | – | 9.128 mPa·s
373.15 K | – | 1304.8 kg/m3 | – | 7.463 mPa·s

CCCCCC[n+]1ccn(C)c1.O=S(=O)([N-]S(=O)(=O)C(F)(F)F)C(F)(F)F + O
[2]
Conditions | electrical conductivity [S/m] | kinematic viscosity [m2/s] | mass density [kg/m3] | speed of sound [m/s]
288.15 K, w2 = 1e-05 | 0.135 | – | – | –
288.15 K, w2 = 0.00094 | 0.142 | – | – | –
293.15 K, w2 = 1e-05 | 0.173 | – | – | –
293.15 K, w2 = 2e-05 | – | 6.53e-05 | – | –
293.15 K, w2 = 0.00094 | 0.18 | – | – | –
293.15 K, w2 = 0.0011 | – | 6.16e-05 | – | –
293.15 K, w2 = 0.00727 | 0.232 | – | – | –
293.15 K, w2 = 0.00784 | 0.237 | – | – | –
293.15 K, w2 = 0.0082 | – | 4.55e-05 | – | –
293.15 K, w2 = 0.00898 | 0.246 | – | – | –
298.15 K, w2 = 1e-05 | 0.218 | 5.12e-05 | – | –
298.15 K, w2 = 2e-05 | – | 5.13e-05 | – | –
298.15 K, w2 = 3.5e-05 | – | – | 1372.07 | 1226.6
298.15 K, w2 = 0.00094 | 0.227 | – | – | –
298.15 K, w2 = 0.00102 | – | – | 1370.45 | –
298.15 K, w2 = 0.00106 | – | – | – | 1227.4
298.15 K, w2 = 0.00112 | – | 4.85e-05 | – | –
298.15 K, w2 = 0.00722 | – | – | 1367.04 | –
298.15 K, w2 = 0.00727 | 0.289 | – | – | –
298.15 K, w2 = 0.007315 | – | – | – | 1230.3
298.15 K, w2 = 0.00784 | 0.295 | – | – | –
298.15 K, w2 = 0.00819 | – | 3.63e-05 | – | –
298.15 K, w2 = 0.00898 | 0.306 | – | – | –
308.15 K, w2 = 1e-05 | 0.328 | – | – | –
308.15 K, w2 = 0.00094 | 0.34 | – | – | –
323.15 K, w2 = 1e-05 | 0.548 | – | – | –
323.15 K, w2 = 0.00094 | 0.566 | – | – | –
